We go through six compounds from patent US20230398130A1, “METHODS AND COMPOSITIONS FOR DIFFERENTIATING STEM CELLS” (Massachusetts Institute of Technology, priority 2020, published 2023).

Assay [1] concerns ISC-enriched organoids. Briefly: Secondary (validation) screen, 384-well 2.5-D, ENR+CD 6 days, n=8 wells, vs ENR+CD+DMSO control: ATP (CTG). Type of assay: cell-based, murine. How it is done: (§1) Drugs were tested at a narrowed dose range around each treatment's identified optimal dose from the primary screen (4× below, 2× above and below).
(§2) High-throughput screening.
(§3) Secondary lysozyme secretion assay screen. Confirmatory secondary screening with primary hits was performed using the above 384-well plate method. The screen was conducted with 4-plate replicates with a base media of ENR+CD. Media was supplemented with compound at day 0 and day 3 (n=8 well replicates per dose) at four different doses: two-fold above, two-fold below, and four-fold below the optimal final dose for each respective treatment. Additionally, each plate carried a large number of ENR+DMSO or ENR+CD+DMSO (vehicle) control wells (n=100 for ATP, and n=25 for LYZ.NS and LYZ.S) for robust normalization. ATP, non-stimulated lysozyme activity and CCh-stimulated lysozyme activity was again measured and the collected data was again processed in a custom R-script, per primary screen with slight modification. Values were log10 transformed, and a plate-wise FC was calculated for each well based on the median value of ENR+CD+DMSO (vehicle) control wells to normalize plate to plate variability.

The test system of assay [2] is ISC-enriched organoids. Briefly: Secondary (validation) screen, 384-well 2.5-D, ENR+CD 6 days, n=8 wells, vs ENR+CD+DMSO control: basal lysozyme secretion (LYZ.NS). Format: cell-based, murine. How it is done: as §1, §2, §3
Assay [3] has as its system ISC-enriched organoids. Briefly: Secondary (validation) screen, 384-well 2.5-D, ENR+CD 6 days, n=8 wells, vs ENR+CD+DMSO control: carbachol-induced lysozyme secretion (LYZ.S). Format: cell-based, murine. The procedure: as §1, §2, §3
For another assay, the system named is Paneth cells. Briefly: Flow cytometry of 3D-cultured intestinal organoids (ENR+CD, 6 days): Paneth cell fraction (lysozyme-positive, CD24-mid). Type of assay: cell-based, murine. The following applies: ENR+CD 6 days, 3-D culture. The procedure: Flow cytometry analysis (3D culture). ISC-enriched organoids cultured in 3D Matrigel with ENRCV media were passaged to 24-well plate in 3D Matrigel with ENRCV. At day zero, media were replaced to ENRCD with or without indicated compounds, and media were replaced every other day. […] Flow cytometry was performed using an LSR Fortessa (BD; Koch Institute Flow Cytometry Core at MIT). The data were analyzed using FlowJo v10 software.
Single live cells were selected by several gating strategies and Paneth cells were identified as lysozyme-high, CD24-mid, side scatter-high (SSC-high) (FIG. 27E). […] To evaluate whether the culture media supplements C and D may alter the effects of the 6 hits, Applicants also performed lysozyme assay in the canonical ENR culture condition in 3-D (because Paneth cells exist in an immature state within ENR, Applicants were unable to robustly quantify Paneth cell number via flow cytometry).
(§4) Flow cytometry. ISC-enriched organoids in 3D Matrigel culture were passaged to a 48-well plate and induced differentiation for 6 days by ENR+CD media containing DMSO or each drug indicated in the figures. DMSO- or drug-containing media were changed every other day. […] After vigorous pipetting and incubation at 37° C. for 15 min, the cell solution was diluted twice with basal media and centrifuged at 300 rcf for 3 min. […] The cell solution was centrifuged again at 300 rcf for 3 min at 4° C. to pellet the cells. […] Cells were centrifuged again for 3 min at 300 rcf and blocked with staining buffer (FACS buffer containing 0.5% Tween20 (Sigma, P2287)) for 15 min at RT in the dark. […] Flow cytometry was performed using an LSR Fortessa (BD; Koch Institute Flow Cytometry Core at MIT). Flow cytometry data were analyzed using FlowJo X v10.6.1 software.
Live Paneth cells were identified as LYZ-high, CD24-mid, side scatter-high (SSC-high) (FIG. 50F).
as §4, with “organoids in 3-D Matrigel culture” for “organoids in 3D Matrigel culture”, “to a 24- or 48-well plate” for “to a 48-well plate”
(In general: A flow cytometer gives signals particle by particle.)

Assay [4] has as its system ISC-enriched organoids. Briefly: Primary screen, 384-well 2.5-D organoid differentiation (ENR+CD, 6 days, Target Selective Inhibitor Library, vs whole-plate median): ATP (CellTiter-Glo 3D, CTG). As to conditions: standard z score of FC. (In general: ATP-based viability assays read luminescence as a measure of living cells.)
In assay [5] the test system is ISC-enriched organoids. Briefly: Lysozyme secretion assay, 3-D organoids in ENR+CD, normalized to ATP. Type of assay: cell-based, murine. As to conditions: for Paneth cell differentiation (functional LYZ secretion), in combination with KPT-330: 6-day ENR+CD differentiation with 160 nM KPT-330; for Paneth cell differentiation (functional LYZ secretion), compound alone: 6-day ENR+CD differentiation, 10 μM SR11302, 20 nM Cobimetinib, others over a dose range. How it is done: Lysozyme assay (3D culture). ISC-enriched organoids cultured in 3D Matrigel with ENRCV media were passaged to 48-well plate in 3D Matrigel with ENRCV. At day zero, media were replaced to ENR or ENRCD with or without indicated compounds, and media were replaced every other day. At day six, cells were washed twice with basal media and treated with carbamylcholine chloride (Sigma, C4382) for 3 hours. Media were collected and lysozyme activity was measured by EnzChek Lysozyme Assay Kit (ThermoFisher, E22013).
(§5) Lysozyme secretion assay. ISC-enriched organoids in 3D Matrigel culture were passaged to a 48- or 96-well plate and cultured with ENR or ENR+CD media containing DMSO or each drug for 6 days. DMSO- or drug-containing media were changed every other day. On day 6, cells were washed with basal media twice and treated with basal media with or without 10 μM carbamoylcholine chloride for 3 h in a CO2 incubator at 37° C. A part of the conditioned media was collected and used for lysozyme assay (Thermo, E-22013) following the manufacturer's instruction. The fluorescence was measured using excitation/emission of 485/530 nm. CellTiter-Glo 3D Reagent (Promega, G9681) was added afterward, and the cell culture plate was incubated on an orbital shaker at RT for 30 min to induce cell lysis and to stabilize the luminescent signal. The solution was replaced to a 96-well white microplate, and luminescent signals were measured by a microplate reader (infinite M200, Tecan). The standard curve was prepared by diluting recombinant ATP (Promega, P1132). For both assays, a polynomial cubic curve was fitted to a set of standard data, and each sample value was calculated on the Microsoft Excel.
as §5, with “in 3-D” for “in 3D”, “μM carbachol” for “μM carbamoylcholine chloride”, “3 hours” for “3 h”, “C. Conditioned” for “C. A part of the conditioned”, “nm. CTG” for “nm. CellTiter-Glo”, “Reagent” for “Reagent (Promega, G9681)”

In assay [6] the test system is ISC-enriched organoids. Briefly: Primary screen, 384-well 2.5-D organoid differentiation (ENR+CD, 6 days): basal lysozyme secretion (LYZ.NS). As to conditions: SSMD in LYZ.NS and LYZ.S assays. Type of assay: cell-based, murine.
From the text: as §2

Entries after “also recorded” stand apart in the source; their conditions may differ.

`Cc1cn(-c2cc(NC(=O)c3ccc(C)c(Nc4nccc(-c5cccnc5)n4)c3)cc(C(F)(F)F)c2)cn1` [Nilotinib (AMN-107), Nilotinib]: the Z.CTG worked out at 0.830 with ISC-enriched organoids [1] (Dose 0.10 uM); 1.098 in the assay with ISC-enriched organoids [1] (Dose 0.20 uM); 2.104 in the assay on ISC-enriched organoids [1] (Dose 0.80 uM); 1.275 in the assay with ISC-enriched organoids [1] (dose 0.40 uM); 0.769 with ISC-enriched organoids [4] (Dose 0.08 uM); 0.831 in the assay with ISC-enriched organoids [4] (Dose 0.40 uM). Also, the Z.CTG in the assay on ISC-enriched organoids [4] (Dose 2.00 uM) is reported as 0.577; with ISC-enriched organoids [4] (Dose 10.00 uM) it was −0.029. Moreover, the repSSMD.CTG worked out at 0.571 in the assay on ISC-enriched organoids [1] (Dose 0.10 uM), 0.777 with ISC-enriched organoids [1] (Dose 0.20 uM), 1.535 in the assay on ISC-enriched organoids [1] (Dose 0.80 uM) and 0.902 with ISC-enriched organoids [1] (dose 0.40 uM). Further, the Z.LYZ.NS with ISC-enriched organoids [2] (Dose 0.10 uM) is given as 0.734; in the assay on ISC-enriched organoids [2] (Dose 0.20 uM), 1.283; in the assay on ISC-enriched organoids [2] (Dose 0.80 uM), 1.317; in the assay with ISC-enriched organoids [2] (dose 0.40 uM), 0.805. Also, the repSSMD.LYZ.NS was found to be 1.309 in the assay with ISC-enriched organoids [2] (Dose 0.10 uM), 1.683 with ISC-enriched organoids [2] (Dose 0.20 uM), 1.063 in the assay on ISC-enriched organoids [2] (Dose 0.80 uM) and 1.064 in the assay with ISC-enriched organoids [2] (dose 0.40 uM). For the same compound, the Z.LYZ.S is listed as 0.339 in the assay with ISC-enriched organoids [3] (Dose 0.10 uM), 0.897 in the assay on ISC-enriched organoids [3] (Dose 0.20 uM), 1.099 with ISC-enriched organoids [3] (Dose 0.80 uM) and −0.053 with ISC-enriched organoids [3] (dose 0.40 uM). In addition, the repSSMD.LYZ.S with ISC-enriched organoids [3] (Dose 0.10 uM) is 0.652; with ISC-enriched organoids [3] (Dose 0.20 uM), 1.324; in the assay with ISC-enriched organoids [3] (Dose 0.80 uM), 0.953; with ISC-enriched organoids [3] (dose 0.40 uM), −0.055. Besides, the “mature Paneth cell population within organoids” value in the assay on Paneth cells (hit compound at most potent dose from 2.5-D screening, vs control) is reported as “significantly decreased Paneth abundance”. The total cell number result in the assay on Paneth cells (hit compound at most potent dose) is “significantly increasing total cell number”.

On to `CC1=C(/C=C/C(=C/C=C/C(C)=C/C(=O)O)c2ccc(C)cc2)C(C)(C)CCC1` [SR11302], for which, in the assay on ISC-enriched organoids [5], the “Paneth cell differentiation (functional LYZ secretion), in combination with KPT-330” value (“Paneth cell differentiation … with KPT-330” below) is reported as “significantly decreases functional LYZ secretion” and the “Paneth cell differentiation (functional LYZ secretion), compound alone” value (from here on “Paneth cell differentiation … compound alone”) is “also decreases functional LYZ secretion; also recorded: significantly decreases functional LYZ secretion”.

Turning to `COc1cc2c(Nc3ccc(NC(=O)c4ccccc4)cc3)ncnc2cc1OCCCN1CCOCC1` [ZM447439, reference compound], the “primary screen hit call” value in the assay with ISC-enriched organoids [6] was “lower-effect size hit”. Also, the “Paneth cell differentiation … compound alone” value with ISC-enriched organoids [5] is “did significantly increase Paneth cell differentiation”.

In the case of `O=C(c1ccc(F)c(F)c1Nc1ccc(I)cc1F)N1CC(O)([C@@H]2CCCCN2)C1` [cobimetinib], in the assay with ISC-enriched organoids [5], the “Paneth cell differentiation … with KPT-330” value is recorded as “differentiation was enhanced; also recorded: significantly enhance Paneth cell differentiation; also recorded: proved synergistic in combination with KPT-330” and the “Paneth cell differentiation … compound alone” value is given as “did not significantly alter Paneth cell differentiation”.

`Cc1ccc(C(=O)Cn2c3c(sc2=N)CCCC3)cc1` [pifithrin-a]: in the assay with ISC-enriched organoids [5], the “Paneth cell differentiation … with KPT-330” value was “neither P53 inhibitor altered Paneth cell differentiation; also recorded: did not alter Paneth cell differentiation” and the “Paneth cell differentiation … compound alone” value is “neither P53 inhibitor altered Paneth cell differentiation; also recorded: did not alter Paneth cell differentiation”.

Take `c1ccc2c(CCNc3ccc(Nc4ccncc4)cc3)c[nH]c2c1` [serdemetan]: in the assay on ISC-enriched organoids [5], the “Paneth cell differentiation … with KPT-330” value was “neither P53 inhibitor altered Paneth cell differentiation; also recorded: did not alter Paneth cell differentiation” and the “Paneth cell differentiation … compound alone” value is listed as “neither P53 inhibitor altered Paneth cell differentiation; also recorded: did not alter Paneth cell differentiation”.
